Reference: ChEMBL document CHEMBL1128236, “Highly kappa receptor-selective dynorphin A analogues with modifications in position 3 of dynorphin A(1-11)-NH2” (J Med Chem, 1995)

Tests used:
Mu-type opioid receptor = Mu-type opioid receptor (Cavia porcellus, UniProt P97266); assay: Binding affinity towards Opioid receptor mu 1 in guinea pig brain using [3H]DAMGO as radioligand.
Cavia porcellus [1] = species: Cavia porcellus; assay: Ability to inhibit the electrically evoked contraction of the guinea pig ileum(GPI) of the Compound was determined; format: functional
[2] = target: Kappa-type opioid receptor (Cavia porcellus, UniProt P41144); assay: Binding affinity towards Opioid receptor kappa 1 in guinea pig brain using [3H]U-69593 as radioligand.
Kappa-type opioid receptor, sequence (P41144 whole entry): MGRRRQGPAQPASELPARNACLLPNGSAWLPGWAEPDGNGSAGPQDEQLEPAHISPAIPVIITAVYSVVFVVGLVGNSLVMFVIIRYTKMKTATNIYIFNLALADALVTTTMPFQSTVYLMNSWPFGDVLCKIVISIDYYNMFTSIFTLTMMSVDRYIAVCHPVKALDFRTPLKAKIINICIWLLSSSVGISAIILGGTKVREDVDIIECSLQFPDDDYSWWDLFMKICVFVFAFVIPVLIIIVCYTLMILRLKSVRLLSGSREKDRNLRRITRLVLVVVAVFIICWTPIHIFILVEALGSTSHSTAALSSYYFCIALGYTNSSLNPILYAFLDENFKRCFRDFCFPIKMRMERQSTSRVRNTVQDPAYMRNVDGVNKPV

Cavia porcellus [3] = species: Cavia porcellus; assay: Shift in the activity was determined; ns= no significant shift observed with 1000 nM CTAP used as a mu antagonist; format: functional
[4] = Compound was evaluated for its receptor binding affinity at [3H]cyclo[D-pen2,p-cl-Phe4,D-Pen5](delta receptor) to opioid receptor in guinea pig brain

Mu-type opioid receptor, sequence (P97266 whole entry): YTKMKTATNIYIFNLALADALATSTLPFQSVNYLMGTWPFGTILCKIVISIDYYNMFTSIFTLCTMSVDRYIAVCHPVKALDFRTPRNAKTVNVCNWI

| SMILES | IC50 (Mu-type opioid receptor) [nM] | IC50 (Cavia porcellus [1]) [nM] | IC50 [2] [nM] | IC50 (Cavia porcellus [3]) | IC50 [4] [nM] |
| --- | --- | --- | --- | --- | --- |
| CC[C@H](C)[C@H](NC(=O)[C@H](CCCN=C(N)N)NC(=O)[C@H](CCCN=C(N)N)NC(=O)[C@H](CC(C)C)NC(=O)[C@H](Cc1ccccc1)NC(=O)[C@H](C)NC(=O)CNC(=O)[C@@H](N)Cc1ccc(O)cc1)C(=O)N[C@@H](CCCN=C(N)N)C(=O)N1CCC[C@H]1C(=O)N[C@@H](CCCCN)C(N)=O | 210 | 1.7 | 1.1 | Not Active | – |
| CC[C@H](C)[C@H](NC(=O)[C@H](CCCNC(=N)N)NC(=O)[C@H](CCCNC(=N)N)NC(=O)[C@H](CC(C)C)NC(=O)[C@H](Cc1ccccc1)NC(=O)CNC(=O)CNC(=O)[C@@H](N)Cc1ccc(O)cc1)C(=O)N[C@@H](CCCNC(=N)N)C(=O)N1CCC[C@H]1C(=O)N[C@@H](CCCCN)C(N)=O | – | – | – | Not Active | 25.5 |
| CC[C@H](C)[C@H](NC(=O)[C@H](CCCN=C(N)N)NC(=O)[C@H](CCCN=C(N)N)NC(=O)[C@H](CC(C)C)NC(=O)[C@H](Cc1ccccc1)NC(=O)[C@@H](C)NC(=O)CNC(=O)[C@@H](N)Cc1ccc(O)cc1)C(=O)N[C@@H](CCCN=C(N)N)C(=O)N1CCC[C@H]1C(=O)N[C@@H](CCCCN)C(N)=O | 260 | 8.1 | 0.76 | Not Active | – |
